Measured values reported in US9198894B2, “Uses of 15-benzylidene-14-deoxy-11,12-didehydroandrographolide derivatives in the preparation of antineoplastic drugs” (Zhengzhou University, priority 2010, dated 2015).
Marks after values point to notes of the source that are not given here.

Legend:
[1] = system: mice; assay: Acute oral toxicity test, maximum limit method; assay type: in vivo; details: single dose 5.00 g/kg intragastric, 14 d observation; for Deaths: 10 animals
Method: (§1) 1) Animals: Be the same with that of EXAMPLE 4.
3) Method: 20 mice weighing 20±2 g, half male and half female, were divided into 2 groups (n=10) randomly. Animals were administrated with compound 2 or compound 3 at a dose of 5.00 g/kg by intragastric administration after 12 h of fasting (drinking freely). Weigh the mice, observe and record the performance of animals once a day continuously for 14 d.

[2] = system: S180 murine sarcoma; assay: Growth, invasion and metastasis of S180 sarcoma in tumor-bearing mice; assay type: in vivo, mouse; details: for Average invasion and metastasis grade: S180, grades 0-4; for Mouse Number Grade 0 / Mouse Number Grade 1 / Mouse Number Grade 2 / Mouse Number Grade 3 / Mouse Number Grade 4: S180 invasion; for Mouse Number Grade 0: Grade 0: no invasion; for Mouse Number Grade 1: Grade 1: invasion to right forelimb; for Mouse Number Grade 2: Grade 2: right forelimb and the left side of body; for Mouse Number Grade 3: Grade 3: also the ribs and muscles in chest; for Mouse Number Grade 4: Grade 4: invasion into chest or abdominal cavity; for In vivo antitumor effect on S180 compared with parent compound (in words) / Inhibitory effect on invasion and metastasis of S180 tumor tissues (in words): ig, tested doses
Method: as §1
2) Cells: The S180 murine sarcoma cells were obtained from Henan Academy of Medical and Pharmaceutical Sciences (Zhengzhou, China).
4) Method: Mice were randomly divided into 10 groups (n=12). The S180 cells after in vivo passage for 7 d were diluted with physiological saline to adjust to a concentration of 1×10^7/mL. The inoculation of tumor cells was conducted in two batches, those of tumor control group I and groups treated with compounds 1 or 3 were in batch 1, those of tumor control group II, Cyc group and the compound 2 groups were in batch 2. The mice were injected with S180 cells (0.2 ml/mouse) into the armpit of right forelimb subcutaneously, and 24 h later each group of mice was administrated intragastrically (ig; 0.2 ml/10 g) once a day continuously for 9 d with vehicle (tumor control group), Cyc (standard control), or compounds at the tested doses. On day 10, kill the mice, observe and record the degree of invasion and metastasis of tumor tissues, then the tumor tissues were segregated and weighed. The inhibition ratio (IR) of tumor growth was calculated by the following formula: IR (%)=[(Wc−Wt)/Wc]×100%, where Wc is the average tumor weight of the control group, and Wt is that of the treatment group. Data were expressed as mean±SD and statistical analysis was performed by SPSS Statistics 17.0 using a one-way analysis of variance (ANOVA) followed by unpaired t-test. A value of P<0.05 was considered statistically significant.

[3] = system: Murine hepatoma H22; assay: Anti-tumor and anti-angiogenesis effects on H22 tumor-bearing mice; assay type: in vivo, mouse; details: for IR (%) of tumor growth / Carmine contents / VI (vascular index, mg carmine red per g tumor tissue): H22 mice; for Carmine contents / VI (vascular index, mg carmine red per g tumor tissue): mean ± s; for Inhibition against angiogenesis in H22 tumor (in words) / Inhibition against the growth of mouse hepatoma H22 (in words): ig, tested doses 0.65-1.35 mmol/kg
From the text: 1) Animals: Kunming mice of clean grade, half male and half female, body weight 20±2 g, were purchased from the experimental animal center of Henan Province, China. Qualified Certificate number: SCXK (Yu) 2005-0001.
2) Cells: Murine hepatoma H22 cells were presently obtained from Henan Academy of Medical and Pharmaceutical Sciences (Zhengzhou, China).
Cyclophosphamide (Cyc) was produced by Tianjin Jingshi Pharmaceutical Co., Ltd., China (approval number of medicine: H12021006). Gelatin and carmine red were supplied by Sigma Chemical (St. Louis, Mo., U.S.A). All other chemicals and reagents were of the highest commercial grade available. All drugs were prepared with normal saline emulsified with Tween-80 (0.1% v/v) and dispersed in carboxymethylcellulose (0.5% v/v). 10% (W/V) carmine solution was prepared with salt solution containing 5% (W/V) gelatin which should be used immediately after preparation. The rest of medicines and reagents and the methods for preparation were the same with that of EXAMPLE 1.
4) Method: The H22 cells after in vivo passage for 7 d were diluted with physiological saline to adjust to a concentration of 1×10^7/mL, injected to the armpit of right forelimb of mice subcutaneously (0.2 ml/mouse), then mice were divided into 10 groups (n=12; 6 male and 6 female per group) randomly. 24 h later each group of mice was administrated intragastrically (ig; 0.2 ml/10 g) once a day continuously for 7 d with vehicle (tumor control group and control group), Cyc (standard control), or compounds at the tested doses. After the last drug administration and a following fasting of 8 h, each mouse was anesthetized with 1% pentobarbital in normal saline solution (80 mg/kg; ip). Mice of control group were injected with 5% gelatin in normal saline solution (40) via the tail vein (1 ml/mouse); whereas mice of other groups were injected replaced by 10% carmine red and 5% gelatin in normal saline solution (40). Mice were killed, then freezed in a refrigerator at −20 for 2 h to solidify. Tumors were segregated, weighed and homogenized with 3 M NaOH solution (10 ml/g tumor). The homogenate supernatant was prepared by being centrifuged for 20 min at 14000 rpm, and the absorbance at 490 nm was assayed using a PowerWaveX Microplate Scanning Spectrophotometer (Bio-tek Instruments, Inc). The carmine red content was calculated based on the standard curve. The vascular index (VI) expressed as milligram of carmine red per gram of tumor tissue. The inhibition ratio (IR) of tumor growth was calculated using the formula: IR (%)=[(Wc−Wt)/Wc]×100%, where Wc is the average tumor weight of the control group, and Wt is that of the drug treatment group. Data were expressed as mean±SD and statistical analysis was performed by SPSS Statistics 17.0 using a one-way analysis of variance (ANOVA) followed by unpaired t-test. A value of P<0.05 was considered statistically significant.

[4] = 1.10 mmol/kg (1.10 mmol/g [sic])

Compound	Mortality(%) [1]	Deaths [1]	IR (%) of S180 sarcoma growth ([2]; 0.60 mmol/kg ig once a day 9 d)	IR (%) of S180 sarcoma growth ([2]; 0.85 mmol/kg ig once a day 9 d)	IR (%) of S180 sarcoma growth ([2]; 1.10 mmol/kg ig once a day 9 d)	Average invasion and metastasis grade ([2]; 0.60 mmol/kg)	Average invasion and metastasis grade ([2]; 0.85 mmol/kg)	Average invasion and metastasis grade [2, 4]	Mouse Number Grade 0 ([2]; 0.60 mmol/kg)	Mouse Number Grade 0 ([2]; 0.85 mmol/kg)	Mouse Number Grade 0 [2, 4]	Mouse Number Grade 1 ([2]; 0.60 mmol/kg)	Mouse Number Grade 1 ([2]; 0.85 mmol/kg)	Mouse Number Grade 1 [2, 4]	Mouse Number Grade 2 ([2]; 0.60 mmol/kg)	Mouse Number Grade 2 ([2]; 0.85 mmol/kg)	Mouse Number Grade 2 [2, 4]	Mouse Number Grade 3 ([2]; 0.60 mmol/kg)	Mouse Number Grade 3 ([2]; 0.85 mmol/kg)	Mouse Number Grade 3 [2, 4]	other results
C=C1CCC2C(C)(CO)C(O)CCC2(C)C1C=CC1=CC(=Cc2ccc(Cl)cc2)OC1=O (centres unmarked) [Compound 2, 15-p-chlorobenzylidene-14-deoxy-11,12-didehydro-andrographolide]	0%	0	30.12 ± 8.00 %	53.38 ± 6.83**^ΔΔ %	45.16 ± 5.58**^ΔΔ %	2.00	0.00	0.00	0	12	12	0	0	0	12	0	0	0	0	0	Mouse Number Grade 4 ([2]; 0.60 mmol/kg): 0; Mouse Number Grade 4 ([2]; 0.85 mmol/kg): 0; Mouse Number Grade 4 [2, 4]: 0; In vivo antitumor effect on S180 compared with parent compound (in words) [2]: significantly stronger than that of the parent compound; Inhibitory effect on invasion and metastasis of S180 tumor tissues (in words) [2]: strong inhibitory effect; IR (%) of tumor growth ([3]; 0.65 mmol/kg ig once a day 7 d): 15.69%; Carmine contents ([3]; 0.65 mmol/kg ig once a day 7 d): 4.63 ± 2.93; VI (vascular index, mg carmine red per g tumor tissue) ([3]; 0.65 mmol/kg ig once a day 7 d): 4.42 ± 1.58 mg/g; IR (%) of tumor growth ([3]; 1.00 mmol/kg ig once a day 7 d): 49.63**^ΔΔ %; Carmine contents ([3]; 1.00 mmol/kg ig once a day 7 d): 2.59 ± 1.68*^Δ; VI (vascular index, mg carmine red per g tumor tissue) ([3]; 1.00 mmol/kg ig once a day 7 d): 3.89 ± 0.89 mg/g; IR (%) of tumor growth ([3]; 1.35 mmol/kg ig once a day 7 d): 50.37**^ΔΔ %; Carmine contents ([3]; 1.35 mmol/kg ig once a day 7 d): 1.90 ± 1.39**^ΔΔ; VI (vascular index, mg carmine red per g tumor tissue) ([3]; 1.35 mmol/kg ig once a day 7 d): 3.14 ± 1.69*^Δ mg/g; Inhibition against angiogenesis in H22 tumor (in words) [3]: significant inhibition; Inhibition against the growth of mouse hepatoma H22 (in words) [3]: significant inhibition
C=C1CCC2C(C)(COC(=O)c3cccnc3)C(OC(=O)c3cccnc3)CCC2(C)C1C=CC1=CC(=Cc2ccc(Cl)cc2)OC1=O (centres unmarked) [Compound 3, 15-p-chlorobenzylidene-14-deoxy-11,12-didehydro-3,19-dinicotinate andrographolide]	0%	0	18.89 ± 3.68 %	20.21 ± 4.37 %	24.44 ± 6.30 %	1.08	1.25	0.42	4	5	8	5	2	3	1	2	1	2	3	0	Toxic symptoms observed [1]: No apparent toxic symptoms; IR (%) of S180 sarcoma growth ([2]; 1.35 mmol/kg ig once a day 9 d): 31.21 ± 5.96**^Δ %; Mouse Number Grade 4 ([2]; 0.60 mmol/kg): 0; Mouse Number Grade 4 ([2]; 0.85 mmol/kg): 0; Mouse Number Grade 4 [2, 4]: 0; In vivo antitumor effect on S180 compared with parent compound (in words) [2]: significantly stronger than that of the parent compound; Inhibitory effect on invasion and metastasis of S180 tumor tissues (in words) [2]: strong inhibitory effect; IR (%) of tumor growth ([3]; 0.65 mmol/kg ig once a day 7 d): 37.89* %; Carmine contents ([3]; 0.65 mmol/kg ig once a day 7 d): 2.26 ± 1.97*^Δ; VI (vascular index, mg carmine red per g tumor tissue) ([3]; 0.65 mmol/kg ig once a day 7 d): 3.60 ± 1.86*^Δ mg/g; IR (%) of tumor growth ([3]; 1.00 mmol/kg ig once a day 7 d): 41.26*^ΔΔ %; Carmine contents ([3]; 1.00 mmol/kg ig once a day 7 d): 1.88 ± 1.26**^ΔΔ; VI (vascular index, mg carmine red per g tumor tissue) ([3]; 1.00 mmol/kg ig once a day 7 d): 3.30 ± 1.43*^Δ mg/g; IR (%) of tumor growth ([3]; 1.35 mmol/kg ig once a day 7 d): 49.27**^ΔΔ %; Carmine contents ([3]; 1.35 mmol/kg ig once a day 7 d): 2.14 ± 1.42*^Δ; VI (vascular index, mg carmine red per g tumor tissue) ([3]; 1.35 mmol/kg ig once a day 7 d): 3.88 ± 1.40 mg/g; Inhibition against angiogenesis in H22 tumor (in words) [3]: significant inhibition; Inhibition against the growth of mouse hepatoma H22 (in words) [3]: significant inhibition
